Reference: the supplement of paper PMC10307832

Compound: O=c1ncccn1[C@@H]1O[C@H](CO)[C@@H](O)[C@H]1O [Zebularine] + CC1(C)CCC(c2ccc(Cl)cc2)=C(CN2CCN(c3ccc(C(=O)NS(=O)(=O)c4ccc(N[C@H](CCN5CCOCC5)CSc5ccccc5)c(S(=O)(=O)C(F)(F)F)c4)cc3)CC2)C1 [Navitoclax] (partner 0.5 µM)
Test: relative viability (nuclei count vs DMSO), 5 days (fraction); higher = more cells survive
Conditions: first compound 1 µM
Summary of the method: (§1)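 Values are medians from duplicate plates. Each reflects relative viability, defined as the nuclei count of treated wells over that of vehicle wells. Lung cancer cell lines in 1536-well plates were pin-tool dosed one day after seeding with one drug alone or with a fixed anchor-drug dose plus five library-drug doses (not always all listed) in √10 steps, then fixed, stained and imaged at 4× after 5 days.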

Compared with NCI-H2085, Calu-6 is lower in relative viability: 1.19 for the first, 1.03 for the second.

Going from HCC-366 to NCI-H1666, the relative viability falls from 1.12 to 0.98.

Going from NCI-H596 to LK-2, the relative viability falls from 0.974 to 0.759.

First: NCI-H2087
Second: SK-MES-1
The relative viability of the first is lower: 1.16 for the first, 1.41 for the second.

Going from H3255 to IA-LM, the relative viability rises from 0.627 to 0.899.

First: HCC-44
Second: A549
The relative viability of the first is lower: 0.965 for the first, 1.24 for the second.

Going from NCI-H1299 to NCI-H1792, the relative viability falls from 1.05 to 0.61.

Same assay, conditions: first compound 3.162 µM

Going from NCI-H727 to NCI-H1650, the relative viability rises from 0.451 to 1.06.

Going from EBC-1 to NCI-H1703, the relative viability rises from 0.353 to 0.915.

Going from NCI-H1993 to SW 1573, the relative viability falls from 0.946 to 0.735.

Compared with NCI-H838, NCI-H520 is lower in relative viability: 1.21 for the first, 0.994 for the second.

Compared with NCI-H2126, EMC-BAC-2 is higher in relative viability: 0.813 for the first, 1.15 for the second.

First: NCI-H2085
Second: Calu-6
The relative viability of the first is higher: 1.17 for the first, 0.825 for the second.

Compared with HCC-366, NCI-H1666 is higher in relative viability: 1.02 for the first, 1.05 for the second.

Going from NCI-H596 to LK-2, the relative viability rises from 0.9 to 0.946.

Compared with NCI-H2087, SK-MES-1 is higher in relative viability: 0.885 for the first, 1.32 for the second.

Going from H3255 to IA-LM, the relative viability rises from 0.453 to 0.688.

First: HCC-44
Second: A549
The relative viability of the first is lower: 0.943 for the first, 1.12 for the second.

Compared with NCI-H1299, NCI-H1792 is lower in relative viability: 1.07 for the first, 0.679 for the second.

Same assay, conditions: first compound 10 µM

First: NCI-H727
Second: EBC-1
The relative viability of the first is higher: 0.474 for the first, 0.376 for the second.

Compared with NCI-H1703, SW 1573 is lower in relative viability: 0.859 for the first, 0.6 for the second.

First: NCI-H838
Second: NCI-H520
The relative viability of the first is higher: 0.561 for the first, 0.442 for the second.

Compared with NCI-H2126, EMC-BAC-2 is lower in relative viability: 0.766 for the first, 0.683 for the second.

Going from NCI-H2085 to Calu-6, the relative viability falls from 0.868 to 0.649.

First: HCC-366
Second: NCI-H1666
The relative viability of the first is lower: 0.449 for the first, 0.857 for the second.

Compared with NCI-H596, LK-2 is lower in relative viability: 0.799 for the first, 0.588 for the second.

First: NCI-H2087
Second: SK-MES-1
The relative viability of the first is lower: 0.488 for the first, 0.781 for the second.

Compared with IA-LM, HCC-44 is higher in relative viability: 0.506 for the first, 0.669 for the second.

Going from NCI-H1299 to NCI-H1792, the relative viability rises from 0.782 to 0.816.

Same assay, conditions: first compound 31.62 µM

Compared with NCI-H727, NCI-H1650 is higher in relative viability: 0.442 for the first, 1.21 for the second.

First: EBC-1
Second: NCI-H1703
The relative viability of the first is lower: 0.337 for the first, 1.31 for the second.

Going from NCI-H1993 to SW 1573, the relative viability falls from 1.02 to 0.947.

Compared with NCI-H838, NCI-H520 is lower in relative viability: 0.815 for the first, 0.427 for the second.

Going from NCI-H2126 to EMC-BAC-2, the relative viability rises from 0.735 to 1.28.

Compared with NCI-H2085, Calu-6 is lower in relative viability: 1.08 for the first, 0.647 for the second.

First: HCC-366
Second: NCI-H1666
The relative viability of the first is lower: 0.556 for the first, 1.08 for the second.

Going from NCI-H596 to LK-2, the relative viability falls from 0.984 to 0.787.

First: NCI-H2087
Second: SK-MES-1
The relative viability of the first is higher: 0.767 for the first, 0.526 for the second.

Going from H3255 to IA-LM, the relative viability rises from 0.36 to 0.805.

Compared with HCC-44, A549 is lower in relative viability: 0.973 for the first, 0.913 for the second.

Compared with NCI-H1299, NCI-H1792 is lower in relative viability: 1.06 for the first, 0.325 for the second.

Same assay, conditions: first compound 100 µM

Going from NCI-H727 to NCI-H1650, the relative viability rises from 0.411 to 0.704.

First: EBC-1
Second: NCI-H1703
The relative viability of the first is lower: 0.37 for the first, 0.813 for the second.

First: NCI-H1993
Second: SW 1573
The relative viability of the first is higher: 0.754 for the first, 0.529 for the second.

First: NCI-H838
Second: NCI-H520
The relative viability of the first is higher: 0.403 for the first, 0.294 for the second.

First: NCI-H2126
Second: EMC-BAC-2
The relative viability of the first is lower: 0.509 for the first, 1.3 for the second.

First: NCI-H2085
Second: Calu-6
The relative viability of the first is higher: 0.573 for the first, 0.225 for the second.

Going from HCC-366 to NCI-H1666, the relative viability rises from 0.0921 to 0.575.

First: NCI-H596
Second: LK-2
The relative viability of the first is higher: 0.893 for the first, 0.417 for the second.

First: NCI-H2087
Second: SK-MES-1
The relative viability of the first is higher: 0.37 for the first, 0.33 for the second.

Going from H3255 to IA-LM, the relative viability rises from 0.409 to 0.616.

Compared with HCC-44, A549 is lower in relative viability: 0.248 for the first, 0.206 for the second.

Going from NCI-H1299 to NCI-H1792, the relative viability falls from 0.526 to 0.18.

Compound: O=c1ncccn1[C@@H]1O[C@H](CO)[C@@H](O)[C@H]1O [Zebularine] + COc1cc2c(Oc3ccc(NC(=O)C4(C(=O)Nc5ccc(F)cc5)CC4)cc3F)ccnc2cc1OCCCN1CCOCC1 [Foretinib] (partner 0.25 µM)
Test: as above
Conditions: first compound 1 µM
Summary of the method: as §1

First: NCI-H2342
Second: NCI-H1623
The relative viability of the first is higher: 1.33 for the first, 1 for the second.

Compared with NCI-H727, NCI-H1650 is higher in relative viability: 0.951 for the first, 1.26 for the second.

First: EBC-1
Second: NCI-H1703
The relative viability of the first is lower: 0.102 for the first, 0.338 for the second.

First: NCI-H1993
Second: SW 1573
The relative viability of the first is lower: 0.843 for the first, 0.871 for the second.

First: NCI-H838
Second: LCLC-103H
The relative viability of the first is higher: 1.08 for the first, 0.785 for the second.

Going from NCI-H520 to NCI-H2126, the relative viability rises from 0.895 to 1.44.

Going from EMC-BAC-2 to NCI-H2085, the relative viability falls from 1.09 to 0.879.

Compared with Calu-6, HCC-366 is lower in relative viability: 0.959 for the first, 0.935 for the second.

Going from NCI-H1666 to NCI-H596, the relative viability falls from 0.94 to 0.75.

First: LK-2
Second: NCI-H2087
The relative viability of the first is higher: 1.33 for the first, 1.06 for the second.

First: SK-MES-1
Second: H3255
The relative viability of the first is higher: 1.12 for the first, 0.94 for the second.

Cell Line IA-LM has a relative viability of 1.1.
